Values joined by “and” are separate entries in the source; they are usually repeats but may differ in a detail not shown here. Equal values may be shown once.
Key:
[1] = tested on: Donor 3 GMA T-Cell Lines; assay: ATP proliferation assay (CellTiter Glo), Donor 3 GMA T-cell lines, incl. reactivity to non-canonical GA peptides; type: cell-based, human; settings: for Non-Canonical Peptide Non-Reactivity: proliferation <2 times no antigen control
[2] = tested on: Donor 1 COP T-Cell Lines; assay: ATP proliferation assay (CellTiter Glo), Donor 1 COP T-cell lines, incl. reactivity to non-canonical GA peptides; type: cell-based, human; settings: for luminescent ATP proliferation assay, mean: Day 56, no antigen 5673 (Table 9)
Description: Proliferation was evaluated by measuring ATP content using a luminescent method (CellTiter Glo Luminescent Cell Viability Assay, Promega, Madison, Wis., cat. #G7571) or by measuring BrdU uptake by ELISA (Millipore cat. #2752), in both cases following kit instructions. A split well format was used. Cells in each well were resuspended and 65 μl transferred to the wells of each of two new U-bottom 96-well plates, to generate the replicate plates. For the initial screening, the original 96-well plate received mitomycin-treated autologous PBMC as APC plus 10 μg/mL antigen (GA). A first replicate plate received 100 μl., mitomycin-treated PBMC alone (2×10^5), and no antigen, and a second replicate plate received 100 μL mitomycin-treated PBMC plus GA at a final concentration of 10 μg/mL. Therefore, all three plates received autologous APC (PBMC) treated with mitomycin C to prevent cell division. […] The latter two plates were incubated for 3 days at 37° C., 6% CO2 before adding CellTiter Glo or BrdU and measuring signal. IL-2 was added at 10 U/mL to the original 96-well plate for expansion on Day 17. For subsequent screenings, mitomycin-treated EBV-transformed autologous B-LCL (2×10^5 to 5×10^5 cells/mL) were used as APC.
COP-responsive T-cell lines were obtained from Donor 1. In the initial stimulation, isolated PBMC were plated at 1×10^5 cells per well (5×10^5 cells/mL) with 10 μg/mL Copaxone and cultured as described above. IL-2 was added to all wells on Days 4 and 7 of culture, and the wells screened for reactivity on Day 14 using a luminescent proliferation assay in split well format. The original plate was restimulated, and IL-2 added 4 days after restimulation.
(§1) T-cell line 222-2D8, generated from Donor 1 by initial stimulation with COP, was shown in at least two experiments to proliferate comparably following restimulation with GMA and COP. […] ATP levels were measured at 48 hours after stimulation. The control in the GMA series was no antigen, and the control in the COP series was MBP. The response to GMA in comparison to COP at the 10 μg/mL dose in this assay was 103.4%.
In a second ATP proliferation assay, carried out on Day 56 or culturing following stimulation with 1, 3, or 10 μg/mL of GMA or COP, the response to GMA in comparison to COP at the 10 μg/mL dose was 107.1%.
as §1, with “line 222-2F1,” for “line 222-2D8,”, “Donor 222” for “Donor 1”, “was 85.1%.” for “was 103.4%.”
On Day 56 of culturing, after six total rounds of stimulation, cell line 222-2F12 was assayed for proliferation in response to stimulation with GA and a series of non-canonical peptides. For the assay, 0, 3, 10, or 30 μg/mL of each of peptides GL 14, GLT 631, GAT 111, and GAT 631, COP, and GMA, were added to the T-cell lines at 1×10^5 cells/mL, in the presence of mitomycin C-treated autologous B-LCL. Proliferation was measured by luminescent ATP assay. Cell line 222-2F12 responded to GL 14 at 3 μg/mL, and not to the other non-canonical GA peptides tested. The response to GMA in comparison to COP at the 10 μg/mL dose in this assay was 99.4%.
The cultures were restimulated on days 46, 56, 67 and 75. On Day 56, cell lines 222-2D8, 222-1H12, 222-2F12, 222-2B8, 222-105, 222-2B11, and 222-2E1 again were tested for reactivity to stimulation with 1, 3, or 10 μg/mL of GMA or COP in a proliferation assay. ATP levels were measured in all seven cell lines at 48 hours (results in FIGS. 5A-G) after stimulation. The control in the GMA series was no antigen, and the control in the COP series was MBP. […]

Substance: poly (Glu-Ala-Tyr; 1:1:1) [GAT 111]
- Non-Canonical Peptide Non-Reactivity ([1]; 165-B5G): GAT 111
- Non-Canonical Peptide Non-Reactivity ([1]; 165-C5G): GAT 111
- Non-Canonical Peptide Non-Reactivity ([1]; 165-E7G): GAT 111
- Non-Canonical Peptide Non-Reactivity ([1]; 165-E9G): GAT 111
- Non-Canonical Peptide Non-Reactivity ([1]; 165-F5G): GAT 111
- Non-Canonical Peptide Non-Reactivity ([1]; 165-F10G): GAT 111
- Non-Canonical Peptide Non-Reactivity ([1]; 165-H11G): GAT 111
- Nonreactive T-Cell Line ([1]; Donor 3 GMA lines, stimulation with the non-canonical GA peptide): 165-B5G (Donor 3) and 165-C5G (Donor 3) and 165-C8G (Donor 3) and 165-E7G (Donor 3) and 165-E9G (Donor 3) and 165-F5G (Donor 3) and 165-F10G (Donor 3) and 165-H11G (Donor 3)
- Proliferation (luminescent ATP assay), Mean ([1]; T-cell line 165-05G, 1 μg/mL antigen, Day 50 of culturing, No Antigen Value 2149): 1778 RLU
- Proliferation (luminescent ATP assay), Mean ([1]; T-cell line 165-05G, 3 μg/mL antigen, Day 50 of culturing, No Antigen Value 2149): 1661 RLU
- Proliferation (luminescent ATP assay), Mean ([1]; T-cell line 165-05G, 10 μg/mL antigen, Day 50 of culturing, No Antigen Value 2149): 1569 RLU
- Proliferation (luminescent ATP assay), Mean ([1]; T-cell line 165-05G, 30 μg/mL antigen, Day 50 of culturing, No Antigen Value 2149): 1449 RLU
- Proliferation (luminescent ATP assay), Mean ([1]; T-cell line 165-B5G, 1.25 μg/mL antigen, Day 55 of culturing, No Antigen Value 846): 1005 RLU
- Proliferation (luminescent ATP assay), Mean ([1]; T-cell line 165-B5G, 2.5 μg/mL antigen, Day 55 of culturing, No Antigen Value 846): 886 RLU
- Proliferation (luminescent ATP assay), Mean ([1]; T-cell line 165-B5G, 5 μg/mL antigen, Day 55 of culturing, No Antigen Value 846): 947 RLU
- Proliferation (luminescent ATP assay), Mean ([1]; T-cell line 165-B5G, 10 μg/mL antigen, Day 55 of culturing, No Antigen Value 846): 931 RLU
- Proliferation (luminescent ATP assay), Mean ([1]; T-cell line 165-C5G, 1.25 μg/mL antigen, autologous B-LCL): 445 RLU
- Proliferation (luminescent ATP assay), Mean ([1]; T-cell line 165-C5G, 2.5 μg/mL antigen, autologous B-LCL): 406 RLU
- Proliferation (luminescent ATP assay), Mean ([1]; T-cell line 165-C5G, 5 μg/mL antigen, autologous B-LCL): 422 RLU
- Proliferation (luminescent ATP assay), Mean ([1]; T-cell line 165-C5G, 10 μg/mL antigen, autologous B-LCL): 430 RLU
- Proliferation (luminescent ATP assay), Mean ([1]; T-cell line 165-E7G, 1.25 μg/mL antigen, autologous B-LCL, Day 55): 1896 RLU
- Proliferation (luminescent ATP assay), Mean ([1]; T-cell line 165-E7G, 2.5 μg/mL antigen, autologous B-LCL, Day 55): 2001 RLU
- Proliferation (luminescent ATP assay), Mean ([1]; T-cell line 165-E7G, 5 μg/mL antigen, autologous B-LCL, Day 55): 1285 RLU
- Proliferation (luminescent ATP assay), Mean ([1]; T-cell line 165-E7G, 10 μg/mL antigen, autologous B-LCL, Day 55): 2176 RLU
- Proliferation (luminescent ATP assay), Mean ([1]; T-cell line 165-E9G, 1 μg/mL antigen, Day 50 of culturing, No Antigen Value 1742): 1528 RLU
- Proliferation (luminescent ATP assay), Mean ([1]; T-cell line 165-E9G, 1.25 μg/mL antigen, autologous B-LCL): 154 RLU
- Proliferation (luminescent ATP assay), Mean ([1]; T-cell line 165-E9G, 2.5 μg/mL antigen, autologous B-LCL): 240 RLU
- Proliferation (luminescent ATP assay), Mean ([1]; T-cell line 165-E9G, 3 μg/mL antigen, Day 50 of culturing, No Antigen Value 1742): 1454 RLU
- Proliferation (luminescent ATP assay), Mean ([1]; T-cell line 165-E9G, 5 μg/mL antigen, autologous B-LCL): 240 RLU
- Proliferation (luminescent ATP assay), Mean ([1]; T-cell line 165-E9G, 10 μg/mL antigen, autologous B-LCL): 153 RLU
- Proliferation (luminescent ATP assay), Mean ([1]; T-cell line 165-E9G, 30 μg/mL antigen, Day 50 of culturing, No Antigen Value 1742): 1301 RLU
- Proliferation (luminescent ATP assay), Mean ([1]; T-cell line 165-E9G, 10 μpg/mL antigen, Day 50 of culturing, No Antigen Value 1742): 1462 RLU
- Proliferation (luminescent ATP assay), Mean ([1]; T-cell line 165-F5G, 1.25 μg/mL antigen, autologous B-LCL): 139 RLU
- Proliferation (luminescent ATP assay), Mean ([1]; T-cell line 165-F5G, 2.5 μg/mL antigen, autologous B-LCL): 121 RLU
- Proliferation (luminescent ATP assay), Mean ([1]; T-cell line 165-F5G, 5 μg/mL antigen, autologous B-LCL): 142 RLU
- Proliferation (luminescent ATP assay), Mean ([1]; T-cell line 165-F5G, 10 μg/mL antigen, autologous B-LCL): 122 RLU
- Proliferation (luminescent ATP assay), Mean ([1]; T-cell line 165-F10G, 1 μg/mL antigen, Day 50 of culturing, No Antigen Value 3752): 3575 RLU
- Proliferation (luminescent ATP assay), Mean ([1]; T-cell line 165-F10G, 1.25 μg/mL antigen, autologous B-LCL): 929 RLU
- Proliferation (luminescent ATP assay), Mean ([1]; T-cell line 165-F10G, 2.5 μg/mL antigen, autologous B-LCL): 1342 RLU
- Proliferation (luminescent ATP assay), Mean ([1]; T-cell line 165-F10G, 3 μg/mL antigen, Day 50 of culturing, No Antigen Value 3752): 2989 RLU
- Proliferation (luminescent ATP assay), Mean ([1]; T-cell line 165-F10G, 5 μg/mL antigen, autologous B-LCL): 1091 RLU
- Proliferation (luminescent ATP assay), Mean ([1]; T-cell line 165-F10G, 10 μg/mL antigen, Day 50 of culturing, No Antigen Value 3752): 2876 RLU
- Proliferation (luminescent ATP assay), Mean ([1]; T-cell line 165-F10G, 10 μg/mL antigen, autologous B-LCL): 1054 RLU
- Proliferation (luminescent ATP assay), Mean ([1]; T-cell line 165-F10G, 30 μg/mL antigen, Day 50 of culturing, No Antigen Value 3752): 2299 RLU
- Proliferation (luminescent ATP assay), Mean ([1]; T-cell line 165-H11G, 1 μg/mL antigen, Day 50 of culturing, No Antigen Value 1485): 2448 RLU
- Proliferation (luminescent ATP assay), Mean ([1]; T-cell line 165-H11G, 1.25 μg/mL antigen, autologous B-LCL): 49 RLU
- Proliferation (luminescent ATP assay), Mean ([1]; T-cell line 165-H11G, 2.5 μg/mL antigen, autologous B-LCL): 320 RLU
- Proliferation (luminescent ATP assay), Mean ([1]; T-cell line 165-H11G, 3 μg/mL antigen, Day 50 of culturing, No Antigen Value 1485): 2294 RLU
- Proliferation (luminescent ATP assay), Mean ([1]; T-cell line 165-H11G, 5 μg/mL antigen, autologous B-LCL): 304 RLU
- Proliferation (luminescent ATP assay), Mean ([1]; T-cell line 165-H11G, 10 μg/mL antigen, Day 50 of culturing, No Antigen Value 1485): 2102 RLU
- Proliferation (luminescent ATP assay), Mean ([1]; T-cell line 165-H11G, 10 μg/mL antigen, autologous B-LCL): 336 RLU
- Proliferation (luminescent ATP assay), Mean ([1]; T-cell line 165-H11G, 30 μg/mL antigen, Day 50 of culturing, No Antigen Value 1485): 1599 RLU
- luminescent ATP proliferation assay, mean ([2]; 222-2F12, 3 μg/mL): 3914
- luminescent ATP proliferation assay, mean ([2]; 222-2F12, 10 μg/mL): 3590
- luminescent ATP proliferation assay, mean ([2]; 222-2F12, 30 μg/mL): 2430
- Non-Canonical Peptide Non-Reactivity ([2]; 222-2F12, proliferation <2 times no antigen control): GAT 111
- Nonreactive T-Cell Line ([2]; Donor 1 COP lines, stimulation with the non-canonical GA peptide): 222-2F12 (Donor 1) and 222-1H12 (Donor 1)

— patent publication US9995734B2, “Human T cell line assay for evaluating the immunologic identity of glatiramer acetate preparations” (Mylan Inc., priority 2013, dated 2018)
